Among the data in US20230115945A1, “AMINOPYRIMIDINE COMPOUNDS” (TYRA BIOSCIENCES, INC., priority 2019, published 2023) are IC50 values, retold here.

For this assay, the system named is SNU-16 cells (Gastric Carcinoma, FGFR2 amplification). Description: Cancer cell line cell viability assay, SNU-16. The assay is classed as cell-based. The note with it: Homo sapiens, 72 hours, Cell Titer-Glo 2.0, read-out: Cancer Cell Viability Assays SNU-16 (IC50 nM). The gist of the method: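 RT112/84 or SNU-16 cells (10,000/well) treated 72 h at 37° C. with a 9-dose, 10-fold series from 30 μM, in triplicate. Viability by CellTiter-Glo 2.0 luminescence relative to DMSO controls; IC50 from 4-parameter sigmoidal fit.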

On to `C=CC(=O)Nc1ccc2c(ccn2-c2nc(Nc3ccc(S(C)(=N)=O)cc3)ncc2Cl)c1` (centres unmarked) [Example 70, N-[1-[5-Chloro-2-[4-(methylsulfonimidoyl)anilino]-pyrimidin-4-yl]indol-5-yl]prop-2-enamide], for which the IC50 was 12 nM.
`C=CC(=O)Nc1ccc2c(ccn2-c2nc(Nc3ccc(N=S(C)(C)=O)cc3)ncc2Cl)c1` [Example 66, N-[1-[5-chloro-2-[4-[[dimethyl(oxo)-λ^6-sulfanylidene]amino]anilino]-pyrimidin-4-yl]indol-5-yl]prop-2-enamide]: the IC50 was 65 nM.
